Data published in patent US10662229B2, “Spider venom peptides and methods of use for modulating sodium channels” (priority 2016, dated 2020).

Key:
[1] = target: T1, hNav1.2 (Homo sapiens, UniProt Q99250); experiment: FLIPR membrane potential assay, hNav1.2; assay type: cell-based
T1 construct: host or cells: HEK293
How it was run: (§1)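 Cells plated 48 h before assay, then dye-loaded (red membrane potential dye, 1× in PSS, 30 min, 37° C), then agonist added and membrane potential tracked on FLIPR^TETRA for 300 s. HEK293 stable lines expressing each hNav subtype.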

[2] = target: T2, hNav1.3 (Homo sapiens, UniProt Q9NY46); experiment: FLIPR membrane potential assay, hNav1.3; assay type: cell-based
T2 construct: host or cells: HEK293
How it was run: as §1

[3] = target: T3, hNav1.4 (Homo sapiens, UniProt P35499); experiment: FLIPR membrane potential assay, hNav1.4; assay type: cell-based
T3 construct: host or cells: HEK293
How it was run: as §1

[4] = target: T4, hNav1.5 (Homo sapiens, UniProt Q14524); experiment: FLIPR membrane potential assay, hNav1.5; assay type: cell-based
T4 construct: host or cells: HEK293
How it was run: as §1

[5] = target: T5, hNav1.6 (Homo sapiens, UniProt Q9UQD0); experiment: FLIPR membrane potential assay, hNav1.6; assay type: cell-based
T5 construct: host or cells: HEK293
T5 sequence (Q9UQD0 whole entry): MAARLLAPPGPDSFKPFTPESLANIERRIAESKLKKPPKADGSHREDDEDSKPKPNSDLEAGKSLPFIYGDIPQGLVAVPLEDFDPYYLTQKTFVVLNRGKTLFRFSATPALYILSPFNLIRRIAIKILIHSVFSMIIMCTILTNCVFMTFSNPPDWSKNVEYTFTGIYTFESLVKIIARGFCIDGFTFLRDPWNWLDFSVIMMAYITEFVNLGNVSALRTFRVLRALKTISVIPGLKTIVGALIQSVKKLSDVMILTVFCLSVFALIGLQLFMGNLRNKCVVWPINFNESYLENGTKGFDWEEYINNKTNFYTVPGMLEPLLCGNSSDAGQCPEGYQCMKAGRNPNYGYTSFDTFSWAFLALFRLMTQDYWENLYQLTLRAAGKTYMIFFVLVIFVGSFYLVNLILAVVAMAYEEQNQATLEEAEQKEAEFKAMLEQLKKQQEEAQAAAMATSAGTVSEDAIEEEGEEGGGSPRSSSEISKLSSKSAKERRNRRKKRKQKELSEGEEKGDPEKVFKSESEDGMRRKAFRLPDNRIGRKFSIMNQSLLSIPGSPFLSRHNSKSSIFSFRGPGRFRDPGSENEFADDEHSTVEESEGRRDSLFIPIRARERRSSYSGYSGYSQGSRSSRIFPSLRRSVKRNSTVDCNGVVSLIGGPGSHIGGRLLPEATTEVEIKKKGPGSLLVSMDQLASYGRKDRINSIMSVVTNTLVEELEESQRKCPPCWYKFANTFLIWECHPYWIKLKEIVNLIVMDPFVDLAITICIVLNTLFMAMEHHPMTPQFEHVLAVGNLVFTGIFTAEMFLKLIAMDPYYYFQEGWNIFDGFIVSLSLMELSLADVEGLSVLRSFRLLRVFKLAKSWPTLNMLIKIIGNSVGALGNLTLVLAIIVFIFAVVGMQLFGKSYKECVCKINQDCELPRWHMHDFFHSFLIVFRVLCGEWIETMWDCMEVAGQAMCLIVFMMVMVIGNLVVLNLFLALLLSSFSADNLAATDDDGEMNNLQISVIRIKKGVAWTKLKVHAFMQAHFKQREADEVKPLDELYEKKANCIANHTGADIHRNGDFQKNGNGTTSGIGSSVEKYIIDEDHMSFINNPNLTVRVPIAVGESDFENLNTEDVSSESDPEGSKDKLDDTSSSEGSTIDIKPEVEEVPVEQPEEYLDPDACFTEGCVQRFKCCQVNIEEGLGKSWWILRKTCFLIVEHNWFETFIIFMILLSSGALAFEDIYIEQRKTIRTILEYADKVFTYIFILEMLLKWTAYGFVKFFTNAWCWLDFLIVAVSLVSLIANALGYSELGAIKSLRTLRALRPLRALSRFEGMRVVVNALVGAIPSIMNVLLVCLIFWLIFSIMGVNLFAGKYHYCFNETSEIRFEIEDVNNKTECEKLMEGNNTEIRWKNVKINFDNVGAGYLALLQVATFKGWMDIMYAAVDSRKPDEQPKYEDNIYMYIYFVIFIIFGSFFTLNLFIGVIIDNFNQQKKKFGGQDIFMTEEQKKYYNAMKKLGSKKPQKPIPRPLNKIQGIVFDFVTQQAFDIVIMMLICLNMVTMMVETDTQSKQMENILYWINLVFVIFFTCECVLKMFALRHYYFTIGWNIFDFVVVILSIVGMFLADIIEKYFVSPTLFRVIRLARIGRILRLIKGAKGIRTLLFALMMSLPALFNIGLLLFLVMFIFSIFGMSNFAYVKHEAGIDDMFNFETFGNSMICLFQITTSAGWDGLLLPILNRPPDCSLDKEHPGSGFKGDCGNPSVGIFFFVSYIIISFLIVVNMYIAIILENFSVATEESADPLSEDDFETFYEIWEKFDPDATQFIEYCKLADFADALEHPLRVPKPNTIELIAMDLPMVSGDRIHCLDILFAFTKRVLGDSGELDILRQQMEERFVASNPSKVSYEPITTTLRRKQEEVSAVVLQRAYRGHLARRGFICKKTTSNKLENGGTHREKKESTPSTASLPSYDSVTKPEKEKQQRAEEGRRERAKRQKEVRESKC
How it was run: as §1

[6] = target: T6, hNav1.1 (Homo sapiens, UniProt P35498); experiment: Automated patch clamping (QPatch-16), hNav1.1; assay type: cell-based; conditions: mean±SEM
T6 construct: host or cells: HEK293
Experimental: (§2) HEK293 cells stably expressing hNav1.1-1.7 or CHO cells stably expressing hNav1.8 (as described in Example 3 above) were cultured in a T-175 flask in selection antibiotic-free media at 37° C. Cells were grown to 70-80% confluence and harvested using Detachin (Bio-Scientific, NSW, Australia) at 37° C. for 2 min. Dissociated cells were then resuspended in Ex-Cell ACF CHO Medium with HEPES (25 mM; Sigma-Aldrich Co.) and allowed to recover on the QStirrer for 30 min.
(§3) The extracellular solution contained in mM: NaCl 145, KCl 4, CaCl2 2, MgCl2 1, HEPES 10 and glucose 10. The pH was adjusted to 7.4 with NaOH and osmolarity was adjusted with sucrose to 305 mOsm. The intracellular solution contained in mM: CsF 140, ethylene glycol tetraacetic acid (EGTA)/CsOH 1/5, HEPES 10 and NaCl 10. The pH was adjusted to 7.3 with CsOH and osmolarity adjusted with sucrose to 320 mOsm. […]
(§4) The current-voltage (IV) curve was constructed with a holding potential of −80 mV followed by a pre-pulse of −100 mV for 50 ms and a series of 50 ms step pulses that ranged from −80 to 50 mV in 5 mV increments before returning to a holding potential of −80 mV. Voltage-dependence of activation was determined as normalized Nav conductance (GNa) using: GNa=INa/(Vmemb−Vrev), where Vmemb is the membrane potential and Vrev is the reversal potential for each cell. […]

[7] = target: T5, hNav1.6; experiment: Automated patch clamping (QPatch-16), hNav1.6; assay type: cell-based; conditions: mean±SEM
Experimental: as §2, §3, §4

[8] = test system: ciguatoxin-induced spontaneous pain in mice; experiment: Ciguatoxin-induced spontaneous pain; assay type: in vivo; conditions: intraplantar, co-injected with ciguatoxin
Experimental: (§5) For behavioural assessment adult male C57BL/6J mice aged 6-8 weeks were used. Animals were housed in groups of 3 or 4 per cage, under 12 h light-dark cycles and had standard rodent chow and water ad libitum.
Ciguatoxin (P-CTX-1; isolated in accordance with the protocol of Hamilton et al. (2002) Toxicon, 40(6): 685-693) was diluted in phosphate-buffered saline/0.1% BSA (10 nM) and administered by shallow subcutaneous (intraplantar) injection to the left hind paw of mice in a volume of 40 μL under light isoflurane (3%) anesthesia. Mice were then placed individually into polyvinyl boxes (10×10×10 cm), and spontaneous pain behavior (licks and flinches) was counted by an investigator unaware of the treatments received from video recordings for 10 min post-injection.

[9] = test system: post-operative pain in mice; experiment: Post-operative pain (plantar incision); assay type: in vivo; conditions: 24 h after incision
Experimental: as §5
Mechanical allodynia was assessed using an electronic von Frey apparatus (MouseMet Electronic von Frey, TopCat Metrology Ltd, United Kingdom). Mice were habituated in individual mouse runs for at least 5 min prior to testing. A soft-tipped 0.3 mm diameter flat-ended polypropylene probe was applied to the plantar surface of each hind paw with pressured applied at a force rise rate of ˜1 g/s. The force that elicited paw withdrawal was calculated using the MouseMet Software. The paw withdrawal force (PWF) was determined from the average of three tests, separated by at least 2 min.
To induce post-operative (post-surgical) pain, the plantar skin of the hind paw of mice was incised under light isoflurane (3%) anaesthesia. Briefly, a 7 mm longitudinal incision was made through the skin and fascia 3 mm from the proximal edge of the heel using a sterile surgical scalpel (#11). The underlying plantaris muscle was elevated and also incised longitudinally. The wound was closed with two silk sutures. Mechanical allodynia was assessed 24 h after the incisional injury.

T1 sequence (Q99250 whole entry): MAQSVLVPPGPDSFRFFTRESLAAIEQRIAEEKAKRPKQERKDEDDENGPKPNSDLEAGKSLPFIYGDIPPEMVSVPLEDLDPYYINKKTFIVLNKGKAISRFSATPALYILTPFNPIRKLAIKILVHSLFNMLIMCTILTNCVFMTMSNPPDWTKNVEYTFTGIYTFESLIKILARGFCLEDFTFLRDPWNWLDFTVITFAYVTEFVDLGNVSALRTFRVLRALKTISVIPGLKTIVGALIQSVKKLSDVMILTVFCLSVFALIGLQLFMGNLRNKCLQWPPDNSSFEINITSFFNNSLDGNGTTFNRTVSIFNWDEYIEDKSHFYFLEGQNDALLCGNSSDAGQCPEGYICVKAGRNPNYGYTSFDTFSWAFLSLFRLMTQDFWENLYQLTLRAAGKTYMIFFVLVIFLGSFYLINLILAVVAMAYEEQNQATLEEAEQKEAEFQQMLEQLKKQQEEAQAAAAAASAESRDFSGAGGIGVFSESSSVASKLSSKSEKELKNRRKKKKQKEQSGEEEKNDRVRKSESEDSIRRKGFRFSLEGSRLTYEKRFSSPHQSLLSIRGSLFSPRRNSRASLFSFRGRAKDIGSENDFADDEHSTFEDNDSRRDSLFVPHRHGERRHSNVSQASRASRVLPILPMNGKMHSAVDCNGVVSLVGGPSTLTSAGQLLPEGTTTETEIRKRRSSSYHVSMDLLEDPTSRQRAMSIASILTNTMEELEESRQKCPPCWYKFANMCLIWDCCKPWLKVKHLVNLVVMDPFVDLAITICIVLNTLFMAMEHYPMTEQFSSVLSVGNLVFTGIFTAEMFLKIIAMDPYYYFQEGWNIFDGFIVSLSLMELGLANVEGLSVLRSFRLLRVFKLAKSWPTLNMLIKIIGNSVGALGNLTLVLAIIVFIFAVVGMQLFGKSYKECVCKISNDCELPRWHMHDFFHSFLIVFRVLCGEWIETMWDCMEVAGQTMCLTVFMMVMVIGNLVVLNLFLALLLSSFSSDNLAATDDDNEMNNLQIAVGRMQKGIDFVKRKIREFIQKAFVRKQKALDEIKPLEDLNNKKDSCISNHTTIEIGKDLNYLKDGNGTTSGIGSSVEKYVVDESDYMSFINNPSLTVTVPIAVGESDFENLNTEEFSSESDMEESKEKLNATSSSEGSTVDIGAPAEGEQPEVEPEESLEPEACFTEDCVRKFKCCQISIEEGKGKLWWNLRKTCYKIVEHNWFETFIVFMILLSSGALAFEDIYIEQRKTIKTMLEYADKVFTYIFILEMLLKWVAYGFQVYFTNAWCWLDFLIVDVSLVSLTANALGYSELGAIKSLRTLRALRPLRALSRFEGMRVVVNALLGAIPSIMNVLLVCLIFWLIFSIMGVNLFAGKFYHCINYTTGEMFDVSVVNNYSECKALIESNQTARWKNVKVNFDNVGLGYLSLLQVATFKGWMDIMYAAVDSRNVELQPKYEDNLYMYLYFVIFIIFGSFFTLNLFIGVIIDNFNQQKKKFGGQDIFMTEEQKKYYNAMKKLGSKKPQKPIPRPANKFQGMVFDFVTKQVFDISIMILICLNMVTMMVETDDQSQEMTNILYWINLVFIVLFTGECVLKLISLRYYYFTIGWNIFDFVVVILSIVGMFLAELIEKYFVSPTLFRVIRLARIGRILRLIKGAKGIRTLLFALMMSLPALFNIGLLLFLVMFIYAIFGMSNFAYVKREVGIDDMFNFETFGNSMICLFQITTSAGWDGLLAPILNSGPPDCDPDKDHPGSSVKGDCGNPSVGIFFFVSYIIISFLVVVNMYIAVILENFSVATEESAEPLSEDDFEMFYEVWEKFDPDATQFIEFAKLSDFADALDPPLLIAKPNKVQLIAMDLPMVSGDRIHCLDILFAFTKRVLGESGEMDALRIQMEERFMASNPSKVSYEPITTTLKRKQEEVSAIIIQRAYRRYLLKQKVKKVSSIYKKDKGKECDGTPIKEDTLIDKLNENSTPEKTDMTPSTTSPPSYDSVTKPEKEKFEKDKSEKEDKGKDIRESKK

CSCC[C@@H]1NC(=O)[C@H](Cc2ccc(O)cc2)NC(=O)[C@H](CCCNC(=N)N)NC(=O)[C@@H](NC(=O)[C@@H](N)CC(=O)O)CSSC[C@@H]2NC(=O)[C@@H]3CSSC[C@@H](C(=O)N[C@@H](C)C(=O)N[C@@H](Cc4c[nH]c5ccccc45)C(=O)N[C@@H](CC(=O)O)C(=O)N[C@@H](Cc4ccccc4)C(=O)N[C@H](C(=O)N[C@@H](Cc4ccccc4)C(=O)N[C@H](C(=O)O)[C@@H](C)O)[C@@H](C)O)NC(=O)[C@H](Cc4ccc(O)cc4)NC(=O)[C@H](CCCCN)NC(=O)[C@H](CCSC)NC(=O)[C@H](CCCCN)NC(=O)[C@H](CCCNC(=N)N)NC(=O)[C@H](CCCCN)NC(=O)[C@H](CSSC[C@H](NC(=O)[C@H](CC(=O)O)NC(=O)CNC(=O)[C@H](Cc4ccccc4)NC1=O)C(=O)N[C@@H](CCC(=O)O)C(=O)N[C@@H](CCCCN)C(=O)N[C@@H](CC(=O)O)C(=O)N[C@@H](CCC(=O)O)C(=O)N[C@@H](CC(=O)O)C(=O)N3)NC(=O)CNC(=O)[C@H](CC(C)C)NC(=O)[C@H](Cc1cnc[nH]1)NC(=O)[C@H](CCCCN)NC2=O [Pnc1a]
IC50 [1]: 2.95 µM | IC50 [2]: 8.13 µM | IC50 [3]: 11.2 µM | IC50 [4]: 85.1 µM | IC50 [5]: 18.6 µM | pIC50 Nav1.1 [6]: 7.43±0.1 M | pIC50 Nav1.6 [7]: 6.89±0.1 M | ciguatoxin-induced spontaneous pain behaviours [8]: significantly reduced | mechanical threshold of the injured paw compared to vehicle ([9]; intraperitoneal 3 mg/kg): significantly increased | mechanical threshold of the injured paw compared to vehicle ([9]; intraplantar 3 μM): significantly increased
